“And” between values parts separate entries of the source, which are not always exact repeats. Equal values may be shown once.
Legend:
Test in all cases: In vitro DCF-G processing assay (UPLC)
Format in all cases: biochemical
[1] = molecular target: T1, Eubacterium eligens GUS (EeGUS) (Lachnospira eligens, UniProt C4Z6Z2); details: DCF-G as substrate, 400 µM; pH 6.5; 37 °C
T1 sequence (C4Z6Z2 1-611): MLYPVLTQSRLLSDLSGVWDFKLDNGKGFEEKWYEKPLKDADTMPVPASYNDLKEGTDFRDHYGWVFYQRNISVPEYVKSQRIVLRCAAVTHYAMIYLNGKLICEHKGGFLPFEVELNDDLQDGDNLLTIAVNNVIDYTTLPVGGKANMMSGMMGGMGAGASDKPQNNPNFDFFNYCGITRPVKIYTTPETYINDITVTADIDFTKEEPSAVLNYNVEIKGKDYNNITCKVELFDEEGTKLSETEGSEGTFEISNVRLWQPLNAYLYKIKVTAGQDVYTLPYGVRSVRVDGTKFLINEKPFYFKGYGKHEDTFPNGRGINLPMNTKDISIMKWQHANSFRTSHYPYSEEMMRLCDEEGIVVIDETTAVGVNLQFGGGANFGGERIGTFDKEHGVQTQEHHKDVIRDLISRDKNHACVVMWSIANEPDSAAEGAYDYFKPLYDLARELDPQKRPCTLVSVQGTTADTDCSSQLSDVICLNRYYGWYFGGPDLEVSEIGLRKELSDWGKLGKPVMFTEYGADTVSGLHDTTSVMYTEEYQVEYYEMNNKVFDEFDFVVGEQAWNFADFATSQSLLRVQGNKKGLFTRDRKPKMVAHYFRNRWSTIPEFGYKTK

[2] = molecular target: T2, Faecalibacterium prausnitzii GUS (FpGUS) (Faecalibacterium duncaniae, UniProt C7H4D2); details: DCF-G as substrate, 400 µM; pH 6.0; 37 °C
T2 sequence (C7H4D2 1-608): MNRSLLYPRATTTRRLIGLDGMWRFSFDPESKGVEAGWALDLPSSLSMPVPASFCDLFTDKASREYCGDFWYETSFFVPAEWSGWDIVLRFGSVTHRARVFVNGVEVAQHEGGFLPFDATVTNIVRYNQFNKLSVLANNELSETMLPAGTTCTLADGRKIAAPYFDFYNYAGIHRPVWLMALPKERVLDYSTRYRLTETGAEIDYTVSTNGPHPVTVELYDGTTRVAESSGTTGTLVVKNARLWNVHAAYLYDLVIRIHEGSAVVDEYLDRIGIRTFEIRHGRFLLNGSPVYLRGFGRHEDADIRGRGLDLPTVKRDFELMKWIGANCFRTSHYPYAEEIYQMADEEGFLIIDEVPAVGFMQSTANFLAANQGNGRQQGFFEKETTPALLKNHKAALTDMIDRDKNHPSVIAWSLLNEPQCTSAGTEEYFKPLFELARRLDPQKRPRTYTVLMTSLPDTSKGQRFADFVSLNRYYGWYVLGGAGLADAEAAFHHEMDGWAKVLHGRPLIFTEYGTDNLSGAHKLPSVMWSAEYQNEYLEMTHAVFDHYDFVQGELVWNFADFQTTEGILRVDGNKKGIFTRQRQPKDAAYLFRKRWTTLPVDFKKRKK

[3] = molecular target: T3, Ruminococcus gnavus GUS (RgGUS) (Mediterraneibacter gnavus, UniProt A0A2N5PVZ8); details: DCF-G as substrate, 400 µM; pH 6.5; 37 °C
T3 sequence (A0A2N5PVZ8 1-603): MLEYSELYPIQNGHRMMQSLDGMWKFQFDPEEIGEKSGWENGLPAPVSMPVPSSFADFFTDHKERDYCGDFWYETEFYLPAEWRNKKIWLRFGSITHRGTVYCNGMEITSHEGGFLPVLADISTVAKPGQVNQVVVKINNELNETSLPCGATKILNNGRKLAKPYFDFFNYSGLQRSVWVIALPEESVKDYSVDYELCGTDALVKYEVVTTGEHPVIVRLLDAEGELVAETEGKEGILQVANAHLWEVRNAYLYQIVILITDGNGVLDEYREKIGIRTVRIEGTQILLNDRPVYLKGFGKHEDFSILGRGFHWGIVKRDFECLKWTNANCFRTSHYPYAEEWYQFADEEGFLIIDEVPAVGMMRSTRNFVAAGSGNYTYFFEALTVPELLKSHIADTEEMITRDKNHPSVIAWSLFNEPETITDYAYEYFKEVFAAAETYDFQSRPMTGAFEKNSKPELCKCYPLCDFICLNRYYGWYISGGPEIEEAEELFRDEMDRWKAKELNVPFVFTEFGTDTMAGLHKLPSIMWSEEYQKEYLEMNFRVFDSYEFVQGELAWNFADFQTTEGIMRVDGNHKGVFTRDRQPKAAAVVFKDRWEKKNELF

[4] = molecular target: T4, Bacteroides uniformis GUS (BuGUS) (Bacteroides uniformis, UniProt A0A078SUX9); details: DCF-G as substrate, 400 µM; pH 5.5; 37 °C
T4 sequence (A0A078SUX9 32-886): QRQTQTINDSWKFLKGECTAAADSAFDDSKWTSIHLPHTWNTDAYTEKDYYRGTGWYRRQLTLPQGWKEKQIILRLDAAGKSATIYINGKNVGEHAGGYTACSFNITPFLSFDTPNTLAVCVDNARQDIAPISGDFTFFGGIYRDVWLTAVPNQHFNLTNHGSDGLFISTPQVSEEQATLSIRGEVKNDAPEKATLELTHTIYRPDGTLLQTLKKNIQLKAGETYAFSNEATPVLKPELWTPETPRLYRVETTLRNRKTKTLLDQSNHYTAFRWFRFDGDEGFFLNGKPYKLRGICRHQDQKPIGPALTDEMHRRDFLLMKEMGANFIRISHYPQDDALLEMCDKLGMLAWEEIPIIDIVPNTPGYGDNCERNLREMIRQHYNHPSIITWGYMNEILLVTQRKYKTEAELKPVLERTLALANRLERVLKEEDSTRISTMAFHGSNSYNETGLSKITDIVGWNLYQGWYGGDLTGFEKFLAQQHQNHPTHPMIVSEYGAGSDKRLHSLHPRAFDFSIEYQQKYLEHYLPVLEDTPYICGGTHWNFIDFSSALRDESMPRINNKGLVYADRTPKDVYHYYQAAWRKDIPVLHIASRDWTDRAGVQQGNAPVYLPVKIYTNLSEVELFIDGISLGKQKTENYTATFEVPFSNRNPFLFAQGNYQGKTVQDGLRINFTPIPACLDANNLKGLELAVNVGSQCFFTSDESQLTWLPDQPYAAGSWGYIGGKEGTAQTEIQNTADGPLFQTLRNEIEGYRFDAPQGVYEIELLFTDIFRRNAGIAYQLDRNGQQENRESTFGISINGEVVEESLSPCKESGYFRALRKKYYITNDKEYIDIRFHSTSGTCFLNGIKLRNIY

## O=C(Cc1ccccc1Nc1c(Cl)cccc1Cl)O[C@@H]1O[C@H](C(=O)O)[C@@H](O)[C@H](O)[C@H]1O [DCF-G, Diclofenac acyl β-D-glucuronide]
[1]
  Apparent kcat: 138 s⁻¹ and 138 ± 2 s⁻¹
[2]
  Apparent kcat: 32 ± 3 s⁻¹
[3]
  Apparent kcat: 24.0 s⁻¹ and 24.0 ± 0.5 s⁻¹
[4]
  Apparent kcat: 10 ± 1 s⁻¹

Source: publication PMC6351562, “Structure, function, and inhibition of drug reactivating human gut microbial β-glucuronidases” (Scientific Reports, 2019)
